Where a name gives a salt, the structure may show the parent alone. ± gives the standard deviation of the averaged measurements.
System: KHOS-240S
Test: relative viability vs DMSO control (72 h) (fraction); higher = more viable cells
How it was run: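 Sarcoma cell lines were grown in 384-well plates seeded toward 80–90% confluence and exposed 24 h later to serially diluted compound. After 72 h at 37 °C and 5% CO2, with 0.1% DMSO vehicle and a 5 µM positive control on the plates, ATPLite was read. Relative viability, given as percent growth averaged over up to triplicate wells, was rescaled so that 1 is full and 0 is none.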

Structure (SMILES)	relative viability (0.00017 µM)	relative viability (0.00051 µM)	relative viability (0.00152 µM)	relative viability (0.00457 µM)	relative viability (0.01372 µM)	relative viability (0.04115 µM)	relative viability (0.1235 µM)	relative viability (0.3704 µM)	relative viability (1.111 µM)	relative viability (3.333 µM)	relative viability (10 µM)	relative viability (2 pM)	relative viability (5 pM)	relative viability (15 pM)	relative viability (50 pM)	relative viability (0.00014 µM)	relative viability (0.00041 µM)	relative viability (0.0012 µM)	relative viability (0.0037 µM)	relative viability (0.011 µM)	relative viability (200 fM)	relative viability (600 fM)
Nc1cc(C(F)(F)F)c(-c2cc(N3CCOCC3)nc(N3CCOCC3)n2)cn1 [Buparlisib]	1.039 ± 0.01	1.02 ± 0.024	1.04 ± 0.012	1.02 ± 0.033	1.03 ± 0.032	1.03 ± 0.083	0.989 ± 0.023	0.9151 ± 0.008	0.708 ± 0.024	0.114 ± 0.0036	0.0584 ± 0.0016	–	–	–	–	–	–	–	–	–	–	–
CC(C)NC(=O)C1CCC(n2c(NC(=O)c3ccc(F)cc3)nc3ccc(CN4CCC(C(C)(C)O)CC4)cc32)CC1 (stereo not given) [Belizatinib]	1.07 ± 0.02	1.06 ± 0.012	1.07 ± 0.043	1.08 ± 0.013	1.08 ± 0.041	1.06 ± 0.033	1.06 ± 0.034	0.923 ± 0.02	0.713 ± 0.038	0.399 ± 0.0041	0.189 ± 0.0089	–	–	–	–	–	–	–	–	–	–	–
CC1(C)CNc2cc(NC(=O)c3cccnc3NCc3ccncc3)ccc21 [Motesanib]	0.972 ± 0.026	0.982 ± 0.027	0.973 ± 0.03	0.992 ± 0.025	0.983 ± 0.018	0.96 ± 0.023	0.97 ± 0.013	0.931 ± 0.042	0.922 ± 0.075	0.874 ± 0.066	0.803 ± 0.03	–	–	–	–	–	–	–	–	–	–	–
CC(=O)Nc1cccc(-n2c(=O)n(C3CC3)c(=O)c3c(Nc4ccc(I)cc4F)n(C)c(=O)c(C)c32)c1 [Trametinib]	1.07 ± 0.038	1.07 ± 0.014	1.04 ± 0.027	1.02 ± 0.057	0.876 ± 0.04	0.764 ± 0.029	0.719 ± 0.028	0.717 ± 0.05	0.731 ± 0.023	0.666 ± 0.01	0.641 ± 0.017	–	–	–	–	–	–	–	–	–	–	–
COc1cc2c(cc1O)CCN[C@]21CS[C@@H]2c3c(OC(C)=O)c(C)c4c(c3[C@H](COC1=O)N1[C@@H]2[C@H]2c3c(cc(C)c(OC)c3O)C[C@@H]([C@@H]1O)N2C)OCO4 [Trabectedin]	–	–	–	–	–	–	–	–	–	–	–	1.07 ± 0.015	1.082 ± 0.0023	1.07 ± 0.042	0.946 ± 0.034	0.482 ± 0.054	0.00547 ± 0.0011	0.0576 ± 0.0015	0.0794 ± 0.014	0.0885 ± 0.032	1.08 ± 0.022	1.08 ± 0.022
CN1CCN(c2ccc3nc(-c4c(N)c5c(F)cccc5[nH]c4=O)[nH]c3c2)CC1 [Dovitinib]	1.07 ± 0.031	1.04 ± 0.051	1.06 ± 0.046	1.02 ± 0.023	1.05 ± 0.033	1.08 ± 0.019	0.979 ± 0.022	0.891 ± 0.059	0.548 ± 0.014	0.289 ± 0.027	0.0854 ± 0.0022	–	–	–	–	–	–	–	–	–	–	–
C[C@@H]1COCCN1c1cc(-c2ccnn2C)c2ccnc(-c3ccn[nH]3)c2n1	1.04 ± 0.014	1.06 ± 0.013	1.07 ± 0.042	1.04 ± 0.011	1.01 ± 0.036	0.783 ± 0.028	0.366 ± 0.051	0.194 ± 0.026	0.161 ± 0.0077	0.129 ± 0.0056	0.119 ± 0.0037	–	–	–	–	–	–	–	–	–	–	–
Cn1cc(-c2cc3c(N4CCN(c5ncc([C@@](C)(N)c6ccc(F)cc6)cn5)CC4)ncnn3c2)cn1 [Avapritinib]	1.03 ± 0.022	1.025 ± 0.0056	1 ± 0.039	0.992 ± 0.038	1.02 ± 0.033	1.01 ± 0.014	0.965 ± 0.024	0.943 ± 0.021	0.84 ± 0.026	0.783 ± 0.027	0.656 ± 0.025	–	–	–	–	–	–	–	–	–	–	–
C[C@]1(O)C[C@@H](c2nc(-c3ccc4ccc(-c5ccccc5)nc4c3)c3c(N)nccn32)C1 [Linsitinib]	1.08 ± 0.029	1.1 ± 0.054	1.08 ± 0.026	1.07 ± 0.045	1.07 ± 0.025	1.07 ± 0.048	0.992 ± 0.018	0.917 ± 0.018	0.911 ± 0.026	0.845 ± 0.036	0.56 ± 0.0069	–	–	–	–	–	–	–	–	–	–	–
Cc1nc(NC(=O)N2CCC[C@H]2C(N)=O)sc1-c1ccnc(C(C)(C)C(F)(F)F)c1 [Alpelisib]	1.05 ± 0.071	1.07 ± 0.02	1.03 ± 0.054	1.05 ± 0.054	1.02 ± 0.061	1.01 ± 0.048	0.914 ± 0.055	0.907 ± 0.039	0.825 ± 0.065	0.791 ± 0.04	0.697 ± 0.054	–	–	–	–	–	–	–	–	–	–	–
COc1cccc2c1C(=O)c1c(O)c3c(c(O)c1C2=O)C[C@@](O)(C(=O)CO)C[C@@H]3O[C@H]1C[C@H](N)[C@H](O)[C@H](C)O1 [Doxorubicin Hydrochloride]	1.08 ± 0.041	1.05 ± 0.033	1.05 ± 0.026	1.07 ± 0.039	0.996 ± 0.042	0.654 ± 0.045	0.459 ± 0.011	0.241 ± 0.018	0.109 ± 0.0065	0.124 ± 0.021	0.106 ± 0.0059	–	–	–	–	–	–	–	–	–	–	–
CNC(=O)c1ccc(-c2cnc3ncc(Cc4ccc5ncccc5c4)n3n2)cc1F [Capmatinib]	1.07 ± 0.048	1.05 ± 0.02	1.046 ± 0.0098	1.07 ± 0.033	1.07 ± 0.018	1.06 ± 0.018	1.06 ± 0.027	1.04 ± 0.018	1.03 ± 0.018	1.03 ± 0.012	0.986 ± 0.03	–	–	–	–	–	–	–	–	–	–	–
Cc1ccc(NC(=O)c2ccc(CN3CCN(C)CC3)cc2)cc1Nc1nc(-c2cccnc2)cs1 [Masitinib]	1.02 ± 0.03	1.03 ± 0.021	1.04 ± 0.017	1.03 ± 0.011	1.01 ± 0.051	1.01 ± 0.047	0.98133 ± 0.00047	0.862 ± 0.033	0.758 ± 0.012	0.474 ± 0.028	0.109 ± 0.005	–	–	–	–	–	–	–	–	–	–	–
C[C@@H](c1ccc2nccn2c1)n1nnc2ncc(-c3cnn(C)c3)nc21 [Volitinib]	1.041 ± 0.0092	1.044 ± 0.0082	1.07 ± 0.036	1.07 ± 0.024	1.077 ± 0.006	1.101 ± 0.007	1.09 ± 0.013	1.078 ± 0.0062	1.083 ± 0.0058	1.049 ± 0.0046	1.05 ± 0.021	–	–	–	–	–	–	–	–	–	–	–
CC(C)(C)c1cc(NC(=O)Nc2ccc(-c3cn4c(n3)sc3cc(OCCN5CCOCC5)ccc34)cc2)no1 [Quizartinib]	1.06 ± 0.037	1.05 ± 0.011	1.05 ± 0.025	1.05 ± 0.02	1.06 ± 0.026	1.049 ± 0.0031	1.03 ± 0.029	1.01 ± 0.027	0.994 ± 0.036	0.796 ± 0.05	0.7219 ± 0.0064	–	–	–	–	–	–	–	–	–	–	–
